Holding throughout (assay type): biochemical
Experiment [1] has as its target T1, Bacillus subtilis glutamine PRPP amidotransferase variant K305Q (Bacillus subtilis, UniProt P00497, K316Q).
T1 construct: Enzymes of the B. subtilis class are synthesized with an NH2 terminal propeptide; made in house; host or cells: E. coli strain TX158 (purF), plasmid pBsF/K305Q
Put plainly: Inhibition of enzyme activity (glutamate formation) by nucleotides, mutant K305Q. From the text: (§1) Plasmid pGZ1 was used for production of the wild type enzyme. Plasmid pGZ1 contains a 1.6 kb EcoRI-HindIII purF^+ fragment (Makaroff, C. A., Zalkin, H., Switzer, R. L., and Vollmer, S. J. (1983) J. Biol. Chem. 258, pp. 10586-10593) inserted into the corresponding sites of pUC18. For construction of mutants, the EcoRI-HindIII purF^+ DNA was transferred to pUC118 to yield pBsF. Mutations were constructed by the method of Kunkel et al. (Kunkel, T. A., Roberts, J. D., and Zakour, R. A. (1987) Methods Enzymol. 154, pp. 367-382) using pBsF phagemid DNA. The resulting plasmids were named pBsF/S283A, pBsF/K305Q, pBsF/R307Q, and pBsF/S347A.
Enzyme activity was assayed by measuring the initial rate of formation of the product glutamate. […] Incubation was at 37° C. for 6 min. The reaction was linear with time for at least 20 min under these conditions of assay. Reactions were quenched in a boiling water bath for 2 min, and glutamate was determined by the glutamate dehydrogenase method. The control reaction mixture contained all the components except PRPP.
(§2) Inhibition by nucleotides was determined by the standard assay to which varied concentrations of nucleotide were added. Synergistic inhibition was determined by varying the concentration of one nucleotide in the presence of a fixed concentration of a second nucleotide. Relative activity (see FIG. 1) refers to the enzyme activity at a given concentration of the varied nucleotide relative to that in the absence of the varied nucleotide. I0.5 values were calculated from plots of relative activity versus varied nucleotide concentration.
Site directed mutagenesis was utilized to modify amino acids comprising the A site and C site domains of the glutamine PRPP amidotransferase. These modified forms of amidotransferase were analyzed to determine the impact of the mutations on end-product inhibition and enzymatic activity. Inhibition by nucleotides was determined as described in Example 1.

The target of experiment [2] is T2, wild type B. subtilis glutamine PRPP amidotransferase (Bacillus subtilis, UniProt P00497).
T2 construct: Enzymes of the B. subtilis class are synthesized with an NH2 terminal propeptide and an Fe—S center; made in house; host or cells: E. coli strain TX158 (purF) with plasmid pGZ1
T2 sequence (P00497 12-476): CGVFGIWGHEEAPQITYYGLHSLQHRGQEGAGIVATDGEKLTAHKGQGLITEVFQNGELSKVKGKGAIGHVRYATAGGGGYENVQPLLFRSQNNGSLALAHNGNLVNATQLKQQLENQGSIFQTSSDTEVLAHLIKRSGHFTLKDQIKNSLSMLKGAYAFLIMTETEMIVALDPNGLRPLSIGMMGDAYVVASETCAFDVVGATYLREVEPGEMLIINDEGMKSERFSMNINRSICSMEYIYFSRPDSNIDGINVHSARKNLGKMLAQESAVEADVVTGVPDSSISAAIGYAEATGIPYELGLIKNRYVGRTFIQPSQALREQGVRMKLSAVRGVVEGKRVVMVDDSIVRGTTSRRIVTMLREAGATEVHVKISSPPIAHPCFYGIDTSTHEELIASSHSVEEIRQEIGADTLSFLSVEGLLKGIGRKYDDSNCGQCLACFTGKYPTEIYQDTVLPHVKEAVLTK
Put plainly: Inhibition of enzyme activity by nucleotides (glutamate formation assay), wild type. Particulars: wild type; for Hill coefficient determined from inhibition data: PRPP present. The method, then:
(§3) Enzyme activity was assayed by measuring the initial rate of formation of the product glutamate. […] Incubation was at 37° C. for 6 min. […] Reactions were quenched in a boiling water bath for 2 min, and glutamate was determined by the glutamate dehydrogenase method.
as §2

The target in experiment [3] is T3, Bacillus subtilis glutamine PRPP amidotransferase, wild type (Bacillus subtilis, UniProt P00497).
T3 construct: Enzymes of the B. subtilis class are synthesized with an NH2 terminal propeptide; made in house; host or cells: E. coli strain TX158 (purF), plasmid pGZ1
The experiment in a line: Inhibition of enzyme activity (glutamate formation) by nucleotides, wild type. Particulars: for Hill coefficient from inhibition data: determined from inhibition data, PRPP present. The method, then: Plasmid pGZ1 was used for production of the wild type enzyme. […] For construction of mutants, the EcoRI-HindIII purF^+ DNA was transferred to pUC118 to yield pBsF. […] The resulting plasmids were named pBsF/S283A, pBsF/K305Q, pBsF/R307Q, and pBsF/S347A.
as §3, §2

In experiment [4] the target is T4, Bacillus subtilis glutamine PRPP amidotransferase variant S347A (Bacillus subtilis, UniProt P00497, S358A).
T4 construct: Enzymes of the B. subtilis class are synthesized with an NH2 terminal propeptide; made in house; host or cells: E. coli strain TX158 (purF), plasmid pBsF/S347A
Put plainly: biochemical.
Description: as §1, §3, §2
These modified forms of amidotransferase were analyzed to determine the impact of the mutations on end-product inhibition and enzymatic activity. Inhibition by nucleotides was determined as described in Example 1.

The mark [5] stands for this setting: I0.5, no fixed nucleotide, 2.5 mM PRPP, pH 8.0, 37° C.
[6] abbreviates: fixed GMP 1.0 mM, read-out: I0.5.
Where [7] appears, read: I0.5, fixed GMP 1.4 mM (footnote c).
The mark [8] stands for this setting: fixed ADP 0.5 mM, read-out: I0.5.
Setting [9] is: no fixed nucleotide, 2.5 mM PRPP, pH 8.0, 37° C., read-out: I0.5.
Setting [10] is: I0.5, fixed ADP 0.8 mM (footnote c).

Where “and” joins values, the source holds several entries; their conditions need not be identical. Identical values can stand only once. Like-named read-outs stand apart in the source and are kept apart here.

T1 sequence (P00497 12-476 K316Q): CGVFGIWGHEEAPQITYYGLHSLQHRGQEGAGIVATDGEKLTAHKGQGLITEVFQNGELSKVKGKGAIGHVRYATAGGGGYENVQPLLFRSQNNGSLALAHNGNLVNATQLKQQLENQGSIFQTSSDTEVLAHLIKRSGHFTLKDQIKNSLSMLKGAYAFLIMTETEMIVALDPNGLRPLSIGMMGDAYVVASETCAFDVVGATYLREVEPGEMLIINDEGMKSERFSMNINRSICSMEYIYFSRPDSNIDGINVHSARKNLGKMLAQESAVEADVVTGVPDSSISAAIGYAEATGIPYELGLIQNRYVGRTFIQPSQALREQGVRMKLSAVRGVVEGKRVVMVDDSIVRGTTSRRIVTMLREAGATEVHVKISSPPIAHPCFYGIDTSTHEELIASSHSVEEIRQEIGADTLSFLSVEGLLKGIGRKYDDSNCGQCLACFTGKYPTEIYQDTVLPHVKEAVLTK
T4 sequence (P00497 12-476 S358A): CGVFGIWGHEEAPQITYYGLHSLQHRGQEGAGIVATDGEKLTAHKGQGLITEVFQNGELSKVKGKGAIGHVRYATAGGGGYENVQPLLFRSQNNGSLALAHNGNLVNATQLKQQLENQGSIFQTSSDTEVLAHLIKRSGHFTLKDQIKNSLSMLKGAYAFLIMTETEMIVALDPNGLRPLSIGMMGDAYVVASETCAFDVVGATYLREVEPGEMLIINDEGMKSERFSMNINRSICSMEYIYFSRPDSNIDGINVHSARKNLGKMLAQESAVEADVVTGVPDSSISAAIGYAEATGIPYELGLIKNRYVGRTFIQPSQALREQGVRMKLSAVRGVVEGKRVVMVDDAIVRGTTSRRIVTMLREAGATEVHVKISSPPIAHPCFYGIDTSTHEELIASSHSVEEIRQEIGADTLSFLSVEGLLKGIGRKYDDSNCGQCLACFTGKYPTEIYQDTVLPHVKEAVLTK

Take `Nc1ncnc2c1ncn2[C@@H]1O[C@H](COP(=O)(O)OP(=O)(O)O)[C@@H](O)[C@H]1O` [ADP]: the IC50 in experiment [1] (I0.5, fixed GMP 0.50 mM) came out at 12000 µM; in experiment [1] (I0.5, fixed GMP 5.0 mM) it was 320 µM; in experiment [1] (setting [5]), 31000 µM; in experiment [3] (I0.5, fixed GMP 0.25 mM), 240 µM; in experiment [3] (setting [5]) it was 4700 µM; in experiment [3] (fixed GMP 0.50 mM, read-out: I0.5), 160 µM. For the same molecule, the IC50 in experiment [3] (setting [6]) came to 80 µM; in experiment [3] (fixed GMP 2.0 mM, read-out: I0.5) it was 40 µM; in experiment [4] (setting [7]) it was 220 µM; in experiment [4] (setting [5]), 8100 µM. Further, the “syn. (decreased I0.5 due to a second nucleotide)” value in experiment [1] (fixed GMP 0.50 mM) was 2.6 fold; in experiment [1] (fixed GMP 5.0 mM) it was 97.0 fold; in experiment [2] (fixed GMP 0.25 mM), 20; in experiment [3] (fixed AMP 0.1 mM), 1.9 fold; in experiment [3] (fixed GMP 0.25 mM) it was 20 fold and 20.0 fold; in experiment [3] (fixed GMP 0.50 mM), 29.0 fold. Also, the “syn. (decreased I0.5 due to a second nucleotide)” value is 59 fold and 59.0 fold in experiment [3] (fixed GMP 1.0 mM); 118.0 fold in experiment [3] (fixed GMP 2.0 mM); 188.0 fold in experiment [3] (fixed GMP 4.0 mM); 37.0 fold in experiment [4] (fixed GMP 1.4 mM (footnote c)). In addition, in experiment [2], the “Hill coefficient determined from inhibition data” value was 3.8. Also, the syn. is recorded as 1.9 in experiment [2] (fixed AMP 0.1 mM); 29.0 in experiment [2] (fixed GMP 0.50 mM); 59 in experiment [2] (fixed GMP 1.0 mM); 118.0 in experiment [2] (fixed GMP 2.0 mM); 188.0 in experiment [2] (fixed GMP 4.0 mM). In addition, the “concentration required for 50% inhibition relative to that of AMP” value in experiment [2] (single nucleotide) turned out to be 5 fold. In experiment [3], the “Hill coefficient from inhibition data” value worked out at 3.8. Moreover, in experiment [3] (no fixed nucleotide), the “concentration for 50% inhibition relative to AMP” value came to 5 fold.

Turning to `Nc1ncnc2c1ncn2[C@@H]1O[C@H](COP(=O)(O)O)[C@@H](O)[C@H]1O` [AMP], the IC50 stood at 2500 µM in experiment [1] (setting [5]); 640 µM in experiment [3] (setting [8]); 940 µM in experiment [3] (setting [6]); 900 µM in experiment [3] (setting [9]); 650 µM in experiment [4] (setting [10]); 1800 µM in experiment [4] (setting [7]). The IC50 in experiment [4] (setting [5]) was found to be 1500 µM. Further, the “Hill coefficient determined from inhibition data” value in experiment [2] is given as 3.3-3.8. For the same molecule, the syn. in experiment [2] (fixed ADP 0.5 mM) was 1.4; in experiment [2] (fixed GMP 1.0 mM), 1.0. Further, the “Hill coefficient from inhibition data” value in experiment [3] is 3.3-3.8. Further, the “syn. (decreased I0.5 due to a second nucleotide)” value amounted to 1.4 fold in experiment [3] (fixed ADP 0.5 mM), 1.0 fold in experiment [3] (fixed GMP 1.0 mM), 2.3 fold in experiment [4] (fixed ADP 0.8 mM (footnote c)) and 0.8 fold in experiment [4] (fixed GMP 1.4 mM (footnote c)).

As to `Nc1nc2c(ncn2[C@@H]2O[C@H](COP(=O)(O)O)[C@@H](O)[C@H]2O)c(=O)[nH]1` [GMP], the IC50 in experiment [1] (I0.5, fixed ADP 0.5 mM) worked out at 6000 µM; in experiment [1] (I0.5, fixed ADP 2.5 mM) it was 1300 µM; in experiment [1] (setting [5]), 50000 µM; in experiment [3] (setting [8]), 150 µM; in experiment [3] (fixed AMP 0.1 mM, read-out: I0.5), 9900 µM; in experiment [3] (setting [9]), 9400 µM. The IC50 amounted to 440 µM in experiment [4] (setting [10]) and 14000 µM in experiment [4] (setting [5]). Further, the “syn. (decreased I0.5 due to a second nucleotide)” value in experiment [1] (fixed ADP 0.5 mM) was 8.3 fold; in experiment [1] (fixed ADP 2.5 mM), 38.0 fold; in experiment [3] (fixed ADP 0.5 mM) it was 63 fold and 63.0 fold; in experiment [3] (fixed AMP 0.1 mM), 0.95 fold; in experiment [4] (fixed ADP 0.8 mM (footnote c)) it was 33.0 fold. The syn. in experiment [2] (fixed ADP 0.5 mM) is on record as 63; in experiment [2] (fixed AMP 0.1 mM), 0.95. Also, the “concentration required for 50% inhibition relative to that of ADP” value in experiment [2] (single nucleotide) is recorded as 2 fold. Besides, the “concentration required for 50% inhibition relative to that of AMP” value in experiment [2] (single nucleotide) worked out at 10 fold. In addition, the “concentration for 50% inhibition relative to ADP” value in experiment [3] (no fixed nucleotide) is on record as 2 fold. Also, the “concentration for 50% inhibition relative to AMP” value in experiment [3] (no fixed nucleotide) is 10 fold. For the same molecule, the “I0.5 increase relative to wild type” value in experiment [4] (inhibition at the C site) stood at 3 fold.
